In US10344060B2 (priority 2013, dated 2019):
Read-outs that look alike come from different tables or passages of the source.

How the values were obtained:
hNav1.4 = hNav1.4 (Homo sapiens, UniProt P35499); test: cell-based; assay type: cell-based; conditions: for IC50: PatchXpress, read-out: PX hNav1.4 Tonic IC50; for Nav1.4/Nav1.7: ratio of PX tonic IC50 values
hNav1.7 = hNav1.7 (Homo sapiens, UniProt Q15858); test: cell-based; assay type: cell-based; conditions: for IC50: PatchXpress, read-out: PX hNav1.7 Tonic IC50; for Nav1.4/Nav1.7: ratio of PX tonic IC50 values
Sequence of hNav1.7 (Q15858 whole entry): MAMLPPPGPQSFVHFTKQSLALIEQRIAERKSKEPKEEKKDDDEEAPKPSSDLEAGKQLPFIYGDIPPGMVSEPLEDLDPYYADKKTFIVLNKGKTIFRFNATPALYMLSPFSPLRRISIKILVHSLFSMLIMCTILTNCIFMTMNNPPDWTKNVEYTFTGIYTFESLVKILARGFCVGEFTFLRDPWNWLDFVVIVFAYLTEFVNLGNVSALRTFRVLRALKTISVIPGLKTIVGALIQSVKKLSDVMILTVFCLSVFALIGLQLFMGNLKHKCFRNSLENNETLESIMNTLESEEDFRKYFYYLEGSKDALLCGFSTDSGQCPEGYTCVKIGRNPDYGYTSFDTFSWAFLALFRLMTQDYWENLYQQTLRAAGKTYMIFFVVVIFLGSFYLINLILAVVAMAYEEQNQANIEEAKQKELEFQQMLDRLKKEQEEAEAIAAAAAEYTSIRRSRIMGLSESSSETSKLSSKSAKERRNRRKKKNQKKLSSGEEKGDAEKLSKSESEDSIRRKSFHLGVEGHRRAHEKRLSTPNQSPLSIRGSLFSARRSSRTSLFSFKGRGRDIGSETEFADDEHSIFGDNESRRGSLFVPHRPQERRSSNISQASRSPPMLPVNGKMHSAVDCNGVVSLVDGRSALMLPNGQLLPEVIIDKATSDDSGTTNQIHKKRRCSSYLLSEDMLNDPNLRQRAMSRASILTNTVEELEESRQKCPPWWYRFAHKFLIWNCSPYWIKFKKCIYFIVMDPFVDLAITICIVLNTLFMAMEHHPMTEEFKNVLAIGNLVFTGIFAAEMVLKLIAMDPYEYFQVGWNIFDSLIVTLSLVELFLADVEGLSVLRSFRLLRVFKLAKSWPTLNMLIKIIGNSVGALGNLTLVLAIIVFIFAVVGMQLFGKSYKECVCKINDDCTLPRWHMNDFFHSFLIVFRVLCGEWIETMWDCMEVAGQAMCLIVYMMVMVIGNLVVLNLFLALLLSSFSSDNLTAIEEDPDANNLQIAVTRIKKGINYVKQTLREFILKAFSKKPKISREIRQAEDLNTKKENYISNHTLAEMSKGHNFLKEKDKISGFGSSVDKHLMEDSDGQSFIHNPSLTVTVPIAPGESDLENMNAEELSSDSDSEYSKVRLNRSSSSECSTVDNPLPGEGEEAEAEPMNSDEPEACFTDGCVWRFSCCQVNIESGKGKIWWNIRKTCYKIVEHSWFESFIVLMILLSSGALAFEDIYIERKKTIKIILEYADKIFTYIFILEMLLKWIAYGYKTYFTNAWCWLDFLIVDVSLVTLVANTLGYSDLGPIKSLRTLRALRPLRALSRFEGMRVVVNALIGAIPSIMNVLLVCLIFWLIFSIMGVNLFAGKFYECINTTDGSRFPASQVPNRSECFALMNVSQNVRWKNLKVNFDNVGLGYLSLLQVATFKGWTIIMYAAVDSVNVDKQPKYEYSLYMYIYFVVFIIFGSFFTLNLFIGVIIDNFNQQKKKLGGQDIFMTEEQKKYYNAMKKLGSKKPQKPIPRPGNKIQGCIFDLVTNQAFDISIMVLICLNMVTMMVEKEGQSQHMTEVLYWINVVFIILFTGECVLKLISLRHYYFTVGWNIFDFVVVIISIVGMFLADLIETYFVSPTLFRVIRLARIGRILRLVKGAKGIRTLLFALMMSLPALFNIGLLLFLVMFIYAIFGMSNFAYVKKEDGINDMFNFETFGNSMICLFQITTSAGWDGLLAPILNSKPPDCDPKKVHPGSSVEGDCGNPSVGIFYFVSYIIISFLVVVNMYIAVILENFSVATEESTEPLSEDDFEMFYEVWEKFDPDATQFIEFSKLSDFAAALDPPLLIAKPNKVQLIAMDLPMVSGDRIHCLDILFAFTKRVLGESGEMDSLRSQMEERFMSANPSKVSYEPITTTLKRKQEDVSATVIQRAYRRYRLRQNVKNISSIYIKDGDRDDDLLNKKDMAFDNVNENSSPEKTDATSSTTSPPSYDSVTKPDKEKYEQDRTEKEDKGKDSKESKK

Sequence of hNav1.4 (P35499 whole entry): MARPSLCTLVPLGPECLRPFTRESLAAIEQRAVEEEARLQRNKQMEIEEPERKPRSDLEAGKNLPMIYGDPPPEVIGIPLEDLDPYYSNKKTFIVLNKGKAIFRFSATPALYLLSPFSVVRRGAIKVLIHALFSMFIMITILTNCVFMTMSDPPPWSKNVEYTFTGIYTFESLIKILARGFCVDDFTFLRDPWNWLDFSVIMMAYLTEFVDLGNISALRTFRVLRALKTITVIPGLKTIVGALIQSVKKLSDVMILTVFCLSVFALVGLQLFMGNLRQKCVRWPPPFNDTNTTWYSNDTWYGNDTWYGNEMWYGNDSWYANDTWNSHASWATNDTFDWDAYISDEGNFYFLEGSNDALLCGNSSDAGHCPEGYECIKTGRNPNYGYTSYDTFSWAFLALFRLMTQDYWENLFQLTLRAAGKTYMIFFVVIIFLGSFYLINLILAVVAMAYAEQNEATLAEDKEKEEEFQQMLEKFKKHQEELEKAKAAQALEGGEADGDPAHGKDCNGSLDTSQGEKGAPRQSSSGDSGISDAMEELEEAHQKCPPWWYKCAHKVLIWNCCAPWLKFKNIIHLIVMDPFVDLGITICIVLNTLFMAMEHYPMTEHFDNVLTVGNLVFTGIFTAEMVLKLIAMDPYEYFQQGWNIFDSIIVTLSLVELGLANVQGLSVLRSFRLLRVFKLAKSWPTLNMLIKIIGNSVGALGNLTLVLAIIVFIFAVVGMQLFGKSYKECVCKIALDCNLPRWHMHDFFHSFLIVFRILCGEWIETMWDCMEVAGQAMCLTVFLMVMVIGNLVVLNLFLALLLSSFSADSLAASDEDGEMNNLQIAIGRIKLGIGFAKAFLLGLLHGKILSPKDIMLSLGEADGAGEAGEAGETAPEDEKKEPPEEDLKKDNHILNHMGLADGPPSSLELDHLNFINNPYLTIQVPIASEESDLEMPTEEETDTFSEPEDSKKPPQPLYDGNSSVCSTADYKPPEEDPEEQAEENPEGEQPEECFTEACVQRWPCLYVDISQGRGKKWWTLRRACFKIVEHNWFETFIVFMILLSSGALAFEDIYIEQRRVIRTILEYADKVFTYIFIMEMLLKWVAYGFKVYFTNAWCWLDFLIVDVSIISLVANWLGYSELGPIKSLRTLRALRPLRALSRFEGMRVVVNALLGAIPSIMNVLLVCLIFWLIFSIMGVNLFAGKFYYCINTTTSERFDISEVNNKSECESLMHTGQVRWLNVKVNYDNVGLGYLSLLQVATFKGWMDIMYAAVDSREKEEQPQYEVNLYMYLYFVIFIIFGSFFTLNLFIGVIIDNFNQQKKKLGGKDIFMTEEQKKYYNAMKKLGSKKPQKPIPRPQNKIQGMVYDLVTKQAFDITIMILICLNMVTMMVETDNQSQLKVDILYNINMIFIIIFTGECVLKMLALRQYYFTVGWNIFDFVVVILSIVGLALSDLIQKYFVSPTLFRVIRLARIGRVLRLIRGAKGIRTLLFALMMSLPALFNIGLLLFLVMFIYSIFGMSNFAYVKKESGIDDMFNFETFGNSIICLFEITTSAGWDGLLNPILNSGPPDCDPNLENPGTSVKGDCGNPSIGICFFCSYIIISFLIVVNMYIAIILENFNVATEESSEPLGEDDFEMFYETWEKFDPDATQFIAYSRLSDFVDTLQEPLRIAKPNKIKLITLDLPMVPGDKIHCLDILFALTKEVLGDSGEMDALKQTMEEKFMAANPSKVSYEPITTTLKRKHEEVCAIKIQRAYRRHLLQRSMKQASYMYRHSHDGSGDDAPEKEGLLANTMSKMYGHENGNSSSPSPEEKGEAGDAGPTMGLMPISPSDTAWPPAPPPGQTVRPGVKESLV

Structure (SMILES) | IC50 (hNav1.4; tonic, Table 11) [nM] | IC50 (hNav1.7; tonic, Table 11) [nM] | Nav1.4/Nav1.7 (hNav1.7; Table 11) | IC50 (hNav1.4; Table 12, tonic block) [nM] | Nav1.4/Nav1.7 (hNav1.4; Table 12) | IC50 (hNav1.7; Table 12, tonic block) [nM] | Nav1.4/Nav1.7 (hNav1.4; Table 13)
CC[C@H](C)[C@H](NC(=O)[C@@H](NC(=O)[C@H](CCCCN)NC(=O)[C@H](CCCNC(=N)N)NC(=O)[C@@H]1CSSC[C@@H]2NC(=O)[C@H](C)NC(=O)[C@H](CCCNC(=N)N)NC(=O)[C@H](CCCCN)NC(=O)[C@H](CO)NC(=O)[C@H](CC(=O)O)NC(=O)[C@@H]3CSSC[C@H](NC(=O)[C@H](CCCNC(=N)N)NC(=O)[C@H](CC(C)C)NC(=O)CNC(=O)[C@H](CCC(=O)O)NC(=O)[C@H](CSSC[C@H](NC(=O)[C@@H](N)Cc4ccc(O)cc4)C(=O)N[C@@H](CCC(=O)O)C(=O)N[C@@H](CCCCN)C(=O)N[C@@H](Cc4c[nH]c5ccccc45)C(=O)N[C@@H](CCSC)C(=O)N[C@@H](Cc4c[nH]c5ccccc45)C(=O)N[C@@H]([C@@H](C)O)C(=O)N3)NC2=O)C(=O)N[C@@H](CCCCN)C(=O)N[C@@H](CC(C)C)C(=O)N[C@@H](Cc2c[nH]c3ccccc23)C(=O)N1)[C@@H](C)CC)C(N)=O [compound 50] | 453 | 58.7 | 8 | – | – | – | –
CC[C@H](C)[C@H](NC(=O)[C@@H](NC(=O)[C@H](CCCCN)NC(=O)[C@H](CCCNC(=N)N)NC(=O)[C@@H]1CSSC[C@@H]2NC(=O)[C@H](C)NC(=O)[C@H](CCCNC(=N)N)NC(=O)[C@H](CCCCN)NC(=O)[C@H](CO)NC(=O)[C@H](CC(=O)O)NC(=O)[C@@H]3CSSC[C@H](NC(=O)[C@H](CCCNC(=N)N)NC(=O)[C@H](CC(C)C)NC(=O)CNC(=O)[C@H](CCC(=O)O)NC(=O)[C@H](CSSC[C@H](NC(=O)[C@@H](N)Cc4ccc(O)cc4)C(=O)N[C@@H](CCC(N)=O)C(=O)N[C@@H](CCCCN)C(=O)N[C@@H](CCC(=O)O)C(=O)N[C@@H](CCSC)C(=O)N[C@@H](Cc4c[nH]c5ccccc45)C(=O)N[C@@H]([C@@H](C)O)C(=O)N3)NC2=O)C(=O)N[C@@H](CCCCN)C(=O)N[C@@H](CC(C)C)C(=O)N[C@@H](Cc2c[nH]c3ccccc23)C(=O)N1)[C@@H](C)CC)C(N)=O [compound 52] | 3.1 | > 1000 | – | – | – | – | –
CC[C@H](C)[C@H](NC(=O)[C@@H](NC(=O)[C@H](CCCCN)NC(=O)[C@H](CCCNC(=N)N)NC(=O)[C@@H]1CSSC[C@@H]2NC(=O)[C@H](C)NC(=O)[C@H](CCCNC(=N)N)NC(=O)[C@H](CCC(=O)O)NC(=O)[C@H](CO)NC(=O)[C@H](CC(=O)O)NC(=O)[C@@H]3CSSC[C@H](NC(=O)[C@H](CCCNC(=N)N)NC(=O)[C@H](CC(C)C)NC(=O)CNC(=O)[C@H](CCC(=O)O)NC(=O)[C@H](CSSC[C@H](NC(=O)[C@@H](N)Cc4ccc(O)cc4)C(=O)N[C@@H](CCC(N)=O)C(=O)N[C@@H](CCCCN)C(=O)N[C@@H](Cc4c[nH]c5ccccc45)C(=O)N[C@@H](CCSC)C(=O)N[C@@H](Cc4c[nH]c5ccccc45)C(=O)N[C@@H]([C@@H](C)O)C(=O)N3)NC2=O)C(=O)N[C@@H](CCCCN)C(=O)N[C@@H](CC(C)C)C(=O)N[C@@H](Cc2c[nH]c3ccccc23)C(=O)N1)[C@@H](C)CC)C(N)=O [compound 58] | 43.2 | 0.904 | 48 | – | – | – | –
CC[C@H](C)[C@H](NC(=O)[C@@H](NC(=O)[C@H](CCCCN)NC(=O)[C@H](CCCNC(=N)N)NC(=O)[C@@H]1CSSC[C@@H]2NC(=O)[C@H](C)NC(=O)[C@H](CCCNC(=N)N)NC(=O)[C@H](CCCCN)NC(=O)[C@H](CO)NC(=O)[C@H](CC(=O)O)NC(=O)[C@@H]3CSSC[C@H](NC(=O)[C@H](CCCNC(=N)N)NC(=O)[C@H](CC(C)C)NC(=O)CNC(=O)[C@H](CCC(=O)O)NC(=O)[C@H](CSSC[C@H](NC(=O)[C@@H](N)Cc4ccc(O)cc4)C(=O)N[C@@H](CCC(N)=O)C(=O)N[C@@H](CCCCN)C(=O)N[C@@H](Cc4c[nH]c5ccccc45)C(=O)N[C@@H](CCSC)C(=O)N[C@@H](Cc4c[nH]c5ccccc45)C(=O)N[C@@H]([C@@H](C)O)C(=O)N3)NC2=O)C(=O)N[C@@H](CCC(=O)O)C(=O)N[C@@H](CC(C)C)C(=O)N[C@@H](Cc2c[nH]c3ccccc23)C(=O)N1)[C@@H](C)CC)C(N)=O [compound 64] | 4340 | 930 | 5 | – | – | – | –
CC[C@H](C)[C@H](NC(=O)[C@@H](NC(=O)[C@H](CCC(=O)O)NC(=O)[C@H](CCCNC(=N)N)NC(=O)[C@@H]1CSSC[C@@H]2NC(=O)[C@H](C)NC(=O)[C@H](CCCNC(=N)N)NC(=O)[C@H](CCCCN)NC(=O)[C@H](CO)NC(=O)[C@H](CC(=O)O)NC(=O)[C@@H]3CSSC[C@H](NC(=O)[C@H](CCCNC(=N)N)NC(=O)[C@H](CC(C)C)NC(=O)CNC(=O)[C@H](CCC(=O)O)NC(=O)[C@H](CSSC[C@H](NC(=O)[C@@H](N)Cc4ccc(O)cc4)C(=O)N[C@@H](CCC(N)=O)C(=O)N[C@@H](CCCCN)C(=O)N[C@@H](Cc4c[nH]c5ccccc45)C(=O)N[C@@H](CCSC)C(=O)N[C@@H](Cc4c[nH]c5ccccc45)C(=O)N[C@@H]([C@@H](C)O)C(=O)N3)NC2=O)C(=O)N[C@@H](CCCCN)C(=O)N[C@@H](CC(C)C)C(=O)N[C@@H](Cc2c[nH]c3ccccc23)C(=O)N1)[C@@H](C)CC)C(N)=O [compound 68] | 324 | 12.3 | 26 | – | – | – | –
C#CC[C@@H]1NC(=O)[C@@H]2CSSC[C@H](NC(=O)[C@H](Cc3ccc(O)cc3)NC(=O)[C@@H](N)CC#N)C(=O)N[C@@H](CCC(N)=O)C(=O)N[C@@H](CCCCN)C(=O)N[C@@H](Cc3c[nH]c4ccccc34)C(=O)N[C@@H](CCCC)C(=O)N[C@@H](Cc3c[nH]c4ccccc34)C(=O)N[C@@H]([C@@H](C)O)C(=O)N[C@H]3CSSC[C@H](NC(=O)[C@H](CCC(=O)O)NC(=O)[C@H](CC(C)C)NC(=O)CNC1=O)C(=O)N[C@@H](CCCCN)C(=O)N[C@@H](CC(C)C)C(=O)N[C@@H](Cc1c[nH]c4ccccc14)C(=O)N[C@H](C(=O)N[C@@H](CCCNC(=N)N)C(=O)N[C@@H](CCCCN)C(=O)N[C@H](C(=O)N[C@H](C(N)=O)[C@@H](C)CC)[C@@H](C)CC)CSSC[C@H](NC(=O)[C@H](C)NC(=O)[C@H](CCCNC(=N)N)NC(=O)[C@H](CCCCN)NC(=O)[C@H](CO)NC(=O)[C@H](CC(=O)O)NC3=O)C(=O)N2 [compound 396] | – | – | – | 278 | 98 | 2.84 | –
C#CC[C@H](N)C(=O)NCCCC[C@@H]1NC(=O)[C@H](CCCNC(=N)N)NC(=O)[C@H](CCCCN)NC(=O)[C@H](CO)NC(=O)[C@H](CC(=O)O)NC(=O)[C@@H]2CSSC[C@@H]3NC(=O)[C@H](CCCNC(=N)N)NC(=O)[C@H](CC(C)C)NC(=O)CNC(=O)[C@H](CCC(=O)O)NC(=O)[C@H](CSSC[C@H](NC(=O)[C@H](Cc4ccc(O)cc4)NC(=O)[C@@H](N)CCC)C(=O)N[C@@H](CCC(N)=O)C(=O)N[C@@H](CCCCN)C(=O)N[C@@H](Cc4c[nH]c5ccccc45)C(=O)N[C@@H](CCCC)C(=O)N[C@@H](Cc4c[nH]c5ccccc45)C(=O)N[C@@H]([C@@H](C)O)C(=O)N2)NC(=O)[C@H](CSSC[C@@H](C(=O)N[C@@H](CCCNC(=N)N)C(=O)N[C@@H](CCCCN)C(=O)N[C@H](C(=O)N[C@H](C(N)=O)[C@@H](C)CC)[C@@H](C)CC)NC(=O)[C@H](Cc2c[nH]c4ccccc24)NC(=O)[C@H](CC(C)C)NC(=O)[C@H](CCCCN)NC3=O)NC1=O [compound 431] | – | – | – | – | 13 | 1.63 | –
C#CC[C@H](N)C(=O)N[C@@H](Cc1ccc(O)cc1)C(=O)N[C@H]1CSSC[C@@H]2NC(=O)[C@@H]3CSSC[C@@H](C(=O)N[C@@H](CCCNC(=N)N)C(=O)N[C@@H](CCCCN)C(=O)N[C@@H](CCC(=O)O)C(=O)N[C@@H](Cc4c[nH]c5ccccc45)C(N)=O)NC(=O)[C@H](Cc4c[nH]c5ccccc45)NC(=O)[C@H](CC(C)C)NC(=O)[C@H](CCCCN)NC(=O)[C@H](CSSC[C@H](NC(=O)[C@H]([C@@H](C)O)NC(=O)[C@H](Cc4c[nH]c5ccccc45)NC(=O)[C@H](CCCC)NC(=O)[C@H](Cc4c[nH]c5ccccc45)NC(=O)[C@H](CCCCN)NC(=O)[C@H](CCC(N)=O)NC1=O)C(=O)N[C@@H](CC(=O)O)C(=O)N[C@@H](CO)C(=O)N[C@@H](CCCCN)C(=O)N[C@@H](CCCNC(=N)N)C(=O)N[C@@H](C)C(=O)N3)NC(=O)[C@H](CCCNC(=N)N)NC(=O)[C@H](CC(C)C)NC(=O)CNC(=O)[C@H](CCC(=O)O)NC2=O [compound 450] | – | – | – | 36.7 | 47 | 0.782 | –
C#CC[C@@H]1NC(=O)[C@@H]2CSSC[C@H](NC(=O)[C@H](Cc3ccc(O)cc3)NC(=O)[C@@H](N)CC#N)C(=O)N[C@@H](CCC(N)=O)C(=O)N[C@@H](CCCCN)C(=O)N[C@@H](Cc3c[nH]c4ccccc34)C(=O)N[C@@H](CCCC)C(=O)N[C@@H](Cc3c[nH]c4ccccc34)C(=O)N[C@@H]([C@@H](C)O)C(=O)N[C@H]3CSSC[C@H](NC(=O)[C@H](CCCNC(=N)N)NC(=O)[C@H](CC(C)C)NC(=O)CNC1=O)C(=O)N[C@@H](CCCCN)C(=O)N[C@@H](CC(C)C)C(=O)N[C@@H](Cc1c[nH]c4ccccc14)C(=O)N[C@H](C(=O)N[C@@H](CCCNC(=N)N)C(=O)N[C@@H](CCCCN)C(=O)N[C@@H](CCC(=O)O)C(=O)N[C@@H](Cc1c[nH]c4ccccc14)C(N)=O)CSSC[C@H](NC(=O)[C@H](C)NC(=O)[C@H](CCCNC(=N)N)NC(=O)[C@H](CCCCN)NC(=O)[C@H](CO)NC(=O)[C@H](CC(=O)O)NC3=O)C(=O)N2 [compound 452] | – | – | – | 64.6 | 26 | 2.51 | –
CCCC[C@@H]1NC(=O)[C@H](Cc2c[nH]c3ccccc23)NC(=O)[C@H](CCCCN)NC(=O)[C@H](CCC(N)=O)NC(=O)[C@@H](NC(=O)[C@H](Cc2ccc(O)cc2)NC(=O)[C@@H](N)Cc2cn(CCOCCOCCOCCOCCOCCOCCOCCOCCOCCOCCN)nn2)CSSC[C@@H]2NC(=O)[C@@H]3CSSC[C@@H](C(=O)N[C@@H](CCCNC(=N)N)C(=O)N[C@@H](CCCCN)C(=O)N[C@@H](CCC(=O)O)C(=O)N[C@H](C(N)=O)[C@@H](C)CC)NC(=O)[C@H](Cc4c[nH]c5ccccc45)NC(=O)[C@H](CC(C)C)NC(=O)[C@H](CCCCN)NC(=O)[C@H](CSSC[C@H](NC(=O)[C@H]([C@@H](C)O)NC(=O)[C@H](Cc4c[nH]c5ccccc45)NC1=O)C(=O)N[C@@H](CC(=O)O)C(=O)N[C@@H](CO)C(=O)N[C@@H](CCCCN)C(=O)N[C@@H](CCCNC(=N)N)C(=O)N[C@@H](C)C(=O)N3)NC(=O)[C@H](CCCNC(=N)N)NC(=O)[C@H](CC(C)C)NC(=O)CNC(=O)[C@H](CCC(=O)O)NC2=O [compound 883] | – | – | – | – | – | – | 120
